Reference: patent US20250057963A1, “DISCOVERY OF PIPERLONGUMINE AS A NOVEL E3 LIGASE LIGAND” (University of Florida Research Foundation, Incorporated, priority 2021, published 2025)
Entries after “also recorded” stand apart in the source; their conditions may differ.

Columns and labels:
EML4-ALK = biological target: T1, EML4-ALK (Homo sapiens, UniProt Q9UM73); experiment: EML4-ALK degradation in NCI-H2228 cells (immunoblot); format: cell-based
T1 construct: endogenous in cells; host or cells: NCI-H2228; the other entry of the earlier key: EML4 (Q9HC35, Echinoderm microtubule-associated protein-like 4)
T1 sequence (Q9UM73 with tags, fused parts or gaps): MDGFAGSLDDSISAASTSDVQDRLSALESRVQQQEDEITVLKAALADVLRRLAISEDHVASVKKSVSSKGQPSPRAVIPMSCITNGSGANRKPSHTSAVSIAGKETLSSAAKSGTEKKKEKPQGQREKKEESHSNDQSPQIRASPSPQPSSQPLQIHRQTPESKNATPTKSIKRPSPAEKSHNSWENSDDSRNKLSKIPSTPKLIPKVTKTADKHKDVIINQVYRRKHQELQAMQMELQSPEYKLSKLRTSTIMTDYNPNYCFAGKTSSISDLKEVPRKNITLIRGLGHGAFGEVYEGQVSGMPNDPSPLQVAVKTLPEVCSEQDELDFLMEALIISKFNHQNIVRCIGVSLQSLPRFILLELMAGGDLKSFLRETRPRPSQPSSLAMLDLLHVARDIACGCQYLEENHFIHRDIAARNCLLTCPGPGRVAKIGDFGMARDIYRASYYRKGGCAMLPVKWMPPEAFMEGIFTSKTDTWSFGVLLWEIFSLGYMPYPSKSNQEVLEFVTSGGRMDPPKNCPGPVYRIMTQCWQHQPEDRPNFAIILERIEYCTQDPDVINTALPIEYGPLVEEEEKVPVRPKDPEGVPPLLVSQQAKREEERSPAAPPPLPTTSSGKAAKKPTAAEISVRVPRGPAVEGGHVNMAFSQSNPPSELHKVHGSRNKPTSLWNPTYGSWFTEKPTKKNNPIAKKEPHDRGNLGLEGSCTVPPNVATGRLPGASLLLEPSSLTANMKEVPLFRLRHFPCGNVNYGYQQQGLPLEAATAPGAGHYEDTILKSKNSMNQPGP
Protocol: Human T-ALL MOLT4 (Cat. No. CRL-1582), K562 (Cat. No. CCL-243), NCI-H1299 (Cat. No. CRL-5803), NCI-H2228 (Cat. No. CRL-5935), LNCaP (Cat. No. CRL-1740), 22RV1 (Cat. No. CRL-2505), PC3 (Cat. No. CRL-1435), DU145 (Cat. No. HTB-81), and epithelial kidney HEK 293T (293T, Cat. No. ACS-4500) cell lines were recently purchased from American Type Culture Collection (ATCC, Manassas, VA, USA). MOLT4, K562, NCI—H-1299, NCI-H2228, LNCap, and 22RV 1 cell lines were cultured in RPMI 1640 medium (Cat No. 22400-089, Thermo Fisher Scientific, Waltham, MA, USA) supplemented with 10% (v/v) heat-inactivated fetal bovine serum (FBS, Cat. No. S11150H, Atlanta Biologicals, Flowery Branch, GA, USA), 100 U/mL penicillin and 100 pig/mL streptomycin (Pen-Strep, Cat. No. 15140122, Thermo Fisher Scientific). PC3 cells were cultured in complete F—12K medium (Kaighn's modification of Ham's F-12 medium, Cat. No. 30-2004, ATCC) supplemented with 10% (v/v) heat-inactivated FBS, 100 U/mL penicillin, and 100 μg/mL streptomycin. DU145 cells were cultured in complete Eagle's Minimum Essential Medium (EMEM, Cat. No. 30-2003, ATCC) supplemented with 10% (v/v) heat-inactivated FBS, 100 U/mL penicillin, and 100 μg/mL streptomycin. […]
Immunoblot data were quantified using the ImageJ (v 1.53a) software from NIH. […]

[1] = tested on: PL-binding proteins in MOLT4 cells; experiment: Competitive ABPP with PL-Alkyne probe and LC-MS/MS in MOLT4 cells; set-up: species or system Human
Protocol: Competitive ABPP. MOLT4 cells (2×10^7) were pre-treated with DMSO or 20 µM PL for 4 h and then treated with 1 μM PL-Alkyne probe (Zhang et al., 2018b) for an additional 4 h. The cells were then harvested and lysed in 1× Dulbecco's phosphate-buffered saline (PBS) buffer (Cat. #D1408, Sigma-Aldrich) containing protease and phosphatase inhibitors. CuAAC reaction was performed as previously described (Spradlin et al., 2019) and biotinylated proteins were enriched using Pierce™ streptavidin agarose beads (Cat. #20353, ThermoFisher).
Sample preparation and LC-MS/MS analysis. Protein samples were reduced, alkylated, and digested on-bead using filter-aided sample preparation (Wisniewski et al., 2009) with sequencing grade modified porcine trypsin (Cat. No. V5111, Promega). […]
The MS/MS was acquired according to standard conditions established in the lab. […] The scan sequence of the mass spectrometer was based on the original TopTen™ method; the analysis was programmed for a full scan recorded between 375-1575 Da at 60,000 resolution, and a MS/MS scan at resolution 15,000 to generate product ion spectra to determine amino acid sequence in consecutive instrument scans of the fifteen most abundant peaks in the spectrum. […]
Data processing and analysis. All MS/MS samples were analyzed using Sequest (Thermo Fisher Scientific, San Jose, CA, USA; version IseNode in Proteome Discoverer 2.4.0.305). […]

[2] = tested on: proteins in senescent WI38 cells; conditions: cited from earlier work
CDK9 = CDK9 (Homo sapiens, UniProt P50750); experiment: CDK9 degradation in MOLT4 cells (immunoblot); format: cell-based; set-up: endogenous in cells; host or cells: MOLT4, 293T, K562, NCI-H1299, LNCaP; conditions: immunoblot
Sequence of CDK9 (P50750 whole entry): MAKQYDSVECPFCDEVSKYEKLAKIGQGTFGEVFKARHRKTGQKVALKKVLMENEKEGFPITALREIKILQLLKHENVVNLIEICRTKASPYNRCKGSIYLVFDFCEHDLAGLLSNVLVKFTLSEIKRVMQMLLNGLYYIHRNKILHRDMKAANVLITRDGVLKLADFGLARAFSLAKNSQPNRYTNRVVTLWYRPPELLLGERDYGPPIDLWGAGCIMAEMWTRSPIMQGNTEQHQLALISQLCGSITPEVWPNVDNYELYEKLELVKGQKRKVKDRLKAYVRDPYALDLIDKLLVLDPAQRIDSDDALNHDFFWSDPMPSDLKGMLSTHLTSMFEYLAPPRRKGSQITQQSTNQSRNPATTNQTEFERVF
Protocol: All the cell lines were maintained in a humidified incubator at 37° C. and 5% CO2.
Data analysis was performed using GraphPad Prism software (version 9) unless indicated otherwise. All graphs presented represent the mean±standard deviation of the mean (SD) unless otherwise stated.

[3] = tested on: LNCaP prostate cancer cells and H1299 lung cancer cells; experiment: Cell killing (MTS) with or without KEAP1 siRNA knockdown; format: cell-based, Human; conditions: KEAP1 siRNA vs control siRNA 48 h; compound 0.1 mM (LNCaP) or 0.3 mM (H1299) for 24 h
Protocol: FIGS. 19A to 19B show percentages of cell killing in LNCaP (FIG. 19A) and H1299 (FIG. 19B) cells with or without KEAP1 knockdown. LNCaP and H1299 cells were treated with control siRNA or siRNAs targeting KEAP1 for 48 h and then reseeded and treated with indicated compound (0.1 mM for LNCaP cells and 0.3 mM for H1299 cells) for 24 h. The cell viability was then determined by MTS assay. The data are presented as mean±SD from three replicate cell cultures in a representative experiment. Data are representative of two independent experiments. Statistical significance was calculated with unpaired two-tailed Student's t-tests. **P<0.01; ***P<0.001; NS: not significant.
Viability (MTS) assays in various cancer cells followed the methods described in our previous report (Khan et al., 2019). The data were expressed as average % cell viability and fitted in non-linear regression curves using GraphPad Prism 9 (GraphPad Software, La Jolla, CA, USA).

[4] = biological target: T2, CDK9: 955: KEAP1 ternary complex (Homo sapiens, UniProt P50750+Q14145); experiment: NanoBRET ternary complex formation assay in live 293T cells; format: cell-based; conditions: HiBit-CDK9 and Halo-KEAP1 in 293T cells, 6 h
T2 construct: expressed in transfected cells; host or cells: 293T
T2 sequence (P50750 whole entry): as above
T2 sequence (Q14145 whole entry): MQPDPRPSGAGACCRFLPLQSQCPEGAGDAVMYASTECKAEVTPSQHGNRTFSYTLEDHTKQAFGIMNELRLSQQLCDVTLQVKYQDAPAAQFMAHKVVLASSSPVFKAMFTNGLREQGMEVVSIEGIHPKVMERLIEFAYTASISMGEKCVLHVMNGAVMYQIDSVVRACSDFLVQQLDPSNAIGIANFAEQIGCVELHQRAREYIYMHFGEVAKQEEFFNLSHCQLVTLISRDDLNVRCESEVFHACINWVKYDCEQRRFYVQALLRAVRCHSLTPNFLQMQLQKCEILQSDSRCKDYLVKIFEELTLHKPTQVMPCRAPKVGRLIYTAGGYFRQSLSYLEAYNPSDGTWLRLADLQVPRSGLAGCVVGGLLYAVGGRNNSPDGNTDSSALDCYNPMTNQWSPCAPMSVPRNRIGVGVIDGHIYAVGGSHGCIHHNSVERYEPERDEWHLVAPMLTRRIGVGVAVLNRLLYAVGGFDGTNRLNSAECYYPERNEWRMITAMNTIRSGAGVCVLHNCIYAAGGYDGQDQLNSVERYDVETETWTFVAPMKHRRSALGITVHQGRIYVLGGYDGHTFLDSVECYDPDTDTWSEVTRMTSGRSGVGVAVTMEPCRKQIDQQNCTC
Description: CMV HiBit (Cat. No. CS1956B03) was purchased from Promega. Plasmid HaloTag-KEAP1 (a gift from Yimon Aye, plasmid #58240) was purchased from Addgene. HiBit-CDK9 were constructed through the Gibson assembly method. The primer pair (5′-[…]atggcaaagcagtacgactcggtggag-3′ and 5′-[…]gaagacgcgctcaaactccgtctggt-3′) and the template HA-CDK9 (a gift from Andrew Rice, plasmid #28102) was used to clone the CDK9 fragment. The primer pair (5′-accagacggagtttgagcgcgtcttc[…]-3′ and 5′-ctccaccgagtcgtactgcttcgccat[…]-3′) and pBit3.1—N(Cat. No. N2361, Promega) were used to clone the vector-containing fragment. The PCR fragments were assembled using NEBuilder® HiFi DNAAssembly Master Mix. DNA sequences in all these plasmids were authenticated by automatic sequencing. […] After treatment, NanoBRET Nano-Glo Substrate (Cat. No. N1662, Promega) was added into the medium, and the contents were mixed by shaking the plate for 30 s before measuring donor and acceptor signals on Biotek plate reader. Dual-filtered luminescence was collected with a 450/50 nm bandpass filter (donor, NanoBiT-CDK9 protein) and a 610-nm longpass filter (acceptor, HaloTag NanoBRET ligand) using an integration time of 0.5 s. mBRET ratios were calculated following the NanoBRET™ Nano-Glo® Detection System (Cat. No. N1662, Promega).

| SMILES | 819-induced EML4-ALK degradation after pre-treatment with MG132, MLN4924 or DMF (EML4-ALK) | EML4-ALK degradation (EML4-ALK; immunoblot) | number of PL-binding E3 ligases [1] | number of PL-binding proteins [1] | number of PL-binding proteins ([2]; senescent WI38 fibroblasts, previous study) | number of PL-binding E3 ligases ([2]; senescent cells, previous study (Zhang et al., 2018b)) | CDK9 degradation (CDK9) | effect of KEAP1 knockdown on cytotoxicity of the compound [3] | formation of the CDK9:KEAP1 ternary complex [4] |
| --- | --- | --- | --- | --- | --- | --- | --- | --- | --- |
| COc1cc(/C=C/C(=O)N2CCC=CC2=O)cc(OC)c1OCC(=O)N1CCC(c2cc(OC(C)C)c(Nc3ncc(Cl)c(Nc4ccccc4S(=O)(=O)C(C)C)n3)cc2C)CC1 [compound 819, (E)-1-(3-(4-(2-(4-(4-((5-chloro-4-((2-(isopropylsulfonyl)phenyl)amino)pyrimidin-2-yl)amino)-5-isopropoxy-2-methylphenyl)piperidin-1-yl)-2-oxoethoxy)-3,5-dimethoxyphenyl)acryloyl)-5,6-dihydropyridin-2(1H)-one] | can be blocked | concentration-dependent manner; also recorded: degrades EML4-ALK | – | – | – | – | – | – | – |
| COc1cc(/C=C/C(=O)N2CCC=CC2=O)cc(OC)c1OC [PL, Piperlongumine] | – | – | 9 | about 300 | 172 | 8 | only 955, degraded CDK9; also recorded: none of these treatments degraded CDK9 | – | – |
| COc1cc(CCC(=O)N2CCCCC2=O)cc(OC)c1OCCN1CCN(C(=O)CN2CCC(C(=O)Nc3ncc(SCc4ncc(C(C)(C)C)o4)s3)CC2)CC1 [compound 336, N-(5-(((5-(tert-butyl)oxazol-2-yl)methyl)thio)thiazol-2-yl)-1-(2-(4-(2-(2,6-dimethoxy-4-(3-oxo-3-(2-oxopiperidin-1-yl)propyl)phenoxy)ethyl)piperazin-1-yl)-2-oxoethyl)piperidine-4-carboxamide] | – | – | – | – | – | – | could not induce CDK9 degradation; also recorded: but not 336, can induce CDK9 degradation; also recorded: cannot degrade CDK9 | no significant effect | did not; also recorded: negligible |
